Where two headings read alike, the source gives them in different places.

One test relates to mouse vas deferens. As to the kind of experiment: mouse vas deferens adrenergic transmission test (MVD). Format: cell-based. The settings on record: for IC50: inhibition of contractions in the MVD preparation in vitro, active at IC50 of 5.0 μM or less; for inhibition at 10 µM: read-out: MVD percent inhibition at a given dose level. The source says:
Med. Assoc. 217, 1392 (1971)]. […] Opth. 7, 921-923 (1975); Green and Pederson, Effect of delta-9 Tetrahydrocannabinol on Aqueous Dynamics and Ciliary Body Permeability in the Rabbit Eye., Exptl. Eye Research 15, 499-507 (1973); Colasanti, Craig and Allara, Intraocular Pressure, Ocular Toxicity and Neurotoxicity after Administration of Cannabinol or Cannabigerol, Exptl. Eye Research 39, 252-259 (1984)]. Similarly, synthetic cannabinoids also reduce intraocular pressure [Green, Symunds, Oliver and Elijah, Intraocular Pressure Following Systemic Administration of Cannabinoids., Curr. […] Cannabinoid receptor binding sites can be defined as those to which radio-labelled 4-(1,1-dimethyl-heptyl)-2,3'-dihydroxy-6'alpha-(3-hydroxypropyl)-1',2',3',4',-5',6'-hexahydrobiphenyl (CP 55940) binds in a specific and saturable manner and the binding sites are heterogeneously distributed in the brain [Devane, Dysarz, Johnson, Melvin and Howlett, Determination and Characterization of a Cannabinoid Receptor in Rat Brain, Molecular Pharm 34, 605-613 (1988)]. Natural and synthetic cannabinoids and representative examples of the compounds of the present invention bind to CP 55940 binding sites. […] It is believed that agonist activity at the cannabinoid receptor mediates the anti-glaucoma actions of cannabinoids, and that agonist activity at this receptor correlates with ocular pressure lowering actions in man.
The compounds are identified by the Example or the Preparation number above where their preparations are described.

In test [1] the target is T1, cannabinoid receptor (CP 55940 binding sites) (Rattus norvegicus, UniProt P20272).
T1 construct: from tissue; host or cells: rat brain membranes (inferred from the cited Devane et al. 1988)
T1 sequence (P20272 whole entry): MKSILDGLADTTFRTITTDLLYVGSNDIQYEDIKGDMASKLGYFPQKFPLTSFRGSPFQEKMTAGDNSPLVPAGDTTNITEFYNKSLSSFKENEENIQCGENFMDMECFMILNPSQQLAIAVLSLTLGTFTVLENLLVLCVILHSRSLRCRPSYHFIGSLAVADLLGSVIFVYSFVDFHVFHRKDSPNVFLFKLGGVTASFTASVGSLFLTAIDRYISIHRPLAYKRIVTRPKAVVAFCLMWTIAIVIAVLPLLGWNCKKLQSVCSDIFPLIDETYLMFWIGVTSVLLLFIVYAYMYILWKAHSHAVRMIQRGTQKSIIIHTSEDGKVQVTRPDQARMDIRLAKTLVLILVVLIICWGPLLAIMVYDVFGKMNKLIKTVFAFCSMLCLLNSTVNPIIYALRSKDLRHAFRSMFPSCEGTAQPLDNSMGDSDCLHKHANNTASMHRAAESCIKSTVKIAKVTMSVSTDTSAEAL
As to the kind of experiment: CP55940 binding assay (CP).

The conditions of test [2]: smoking (marijuana, man); topical application or systemic injection (delta-9 tetrahydrocannabinol; cited studies in man and rabbit); cited from earlier work.

`Cc1c(C(=O)c2cccc3ccccc23)c2cccc3c2n1C(CN1CCOCC1)CO3` (single isomer, unassigned; (+)) [Ex. 2B (d), (+)-3-(4-morpholinylmethyl)-5-methyl-6-(1-naphthylcarbonyl)-2,3-dihydropyrrolo[1,2,3-de]-1,4-benzoxazine methanesulfonate]: in the test on mouse vas deferens (methanesulfonate), the IC50 (commonly the concentration needed to halve the response being measured) came out at 43 ± 0.1 nM.
As for `COc1ccc(C(=O)c2c(C)n3c4c(cccc24)OCC3CN2CCOCC2)cc1` (single isomer, unassigned; (+)) [Ex. 2H (d)], the IC50 in test [1] (CP55940 binding, read-out: CP IC50) stood at 199 nM.
In turn, `Cc1c(Sc2ccccc2)c2cccc3c2n1C(CN1CCOCC1)CO3` (single isomer, unassigned; (+)) [Prep. 4B (d)] returned an IC50 in the test on mouse vas deferens of 70 nM.
In the test with mouse vas deferens (methanesulfonate), `Cc1c(C(=O)c2cccc3c(Br)cc(Br)cc23)c2cccc3c2n1C(CN1CCOCC1)CO3` (single isomer, unassigned; (-)) [Ex. 1E, (-)-3-(4-morpholinylmethyl)-5-methyl-6-(5,7-dibromonaphthylcarbonyl)-2,3-dihydropyrrolo[1,2,3-de]-1,4-benzoxazine methanesulfonate] returned a half-maximal inhibitory concentration (IC50) of 2620 ± 1700 nM.
Regarding `Cc1c(C(=O)c2cccc3ccccc23)c2cccc3c2n1C(CN1CCOCC1)CO3` (single isomer, unassigned; (-)) [Ex. 2B (1), (-)-3-(4-morpholinylmethyl)-5-methyl-6-(1-naphthylcarbonyl)-2,3-dihydropyrrolo[1,2,3-de]-1,4-benzoxazine methanesulfonate], the inhibition (in general, the percentage by which the read-out fell short of the control) at 10 µM with mouse vas deferens (Mus musculus) was 37%.
On the same count and under the same terms, the same measure for `COc1ccc(C(=O)c2c(C)n3c4c(cccc24)OCC3CN2CCOCC2)cc1` (single isomer, unassigned; (-)) [Ex. 2H (1)]: 44%.
`Cc1c(Sc2ccccc2)c2cccc3c2n1C(CN1CCOCC1)CO3` (single isomer, unassigned; (-)) [Prep. 4B (1)] had an IC50 in the test on mouse vas deferens of 690 nM.
As to `CCc1c(C(=O)c2ccc(OC)cc2)c2cccc3c2n1C(CN1CCOCC1)CO3` (centres unmarked) [Ex. 2A], the inhibition at 10 µM with mouse vas deferens (Mus musculus) is 27%.
For `Cc1c(C(=O)c2cccc3ccccc23)c2cccc3c2n1CC(CN1CCOCC1)O3` (centres unmarked) [Ex. 2I, 2-(4-morpholinylmethyl)-5-methyl-6-(1-naphthylcarbonyl)2,3-dihydropyrrolo[1,2,3-de]-1,4-benzoxazine], in test [1] (CP IC50, CP55940 binding), the IC50 is about 10 nM.
`Cc1c(Sc2ccccc2)c2cccc3c2n1C(CN1CCOCC1)CO3` (centres unmarked) [Prep. 4A (d,1)]: the IC50 in the test on mouse vas deferens (Mus musculus) is over 10000 nM.
Regarding `CCCCCc1cc(O)c2c(c1)OC(C)(C)[C@@H]1CCC(C)=C[C@@H]21` [delta-9 tetrahydrocannabinol], the “effect on intraocular pressure” value in test [2] was “reduces intraocular pressure”.

The record behind these values is US5112820A, “Anti-glaucoma compositions containing 2- and 3-aminomethyl-6-arylcarbonyl- or 6-phenylthio-2,3-dihydropyrrolo-(1,2,3-de)-1,4-benzoxazines and method of use thereof” (Sterling Drug Inc., priority 1990, dated 1992).
